From patent publication US10968172B2, “USP30 inhibitors” (Mitobridge, Inc., priority 2017, dated 2021)

Target: USP30 (Homo sapiens (Human), UniProt Q70CQ3)
Test: In vitro biochemical assay for USP30 enzyme (Ubiquitin-Rhodamine110 cleavage, fluorescence)
Conditions: 20 nM USP30, 15 min pre-incubation, 100 nM Ub rhodamine substrate, 2 hrs at room temperature
Description: In vitro biochemical assay for USP30 enzyme
The in vitro assay for USP30 evaluates the ability of a test compound to inhibit the activity of the enzyme to cleave ubiquitin from a substrate. Ubiquitin-rhodamine 110 is a quenched, fluorescent substrate for USP30. Cleavage of the amide bond between the C-terminal glycine of ubiquitin and rhodamine results in an increase in rhodamine fluorescence at 535 nm (Exc. 485 nm).
Incubation of the substrate in the presence or absence of USP30 was compared to confirm the deubiquitylating activity of USP30. The USP30 enzyme assay was performed by pre-incubating 20 nM of USP30 with varying concentration of a test compound in the assay buffer [PBS (pH 7.4), 1 mM DTT, 0.01% Tween 20, 0.01% BSA, DMSO final concentration is 1%] for 15 mins at room temperature, following which 100 nM of substrate Ub rhodamine was added and incubated at room temperature for 2 hrs and the plate was read for fluorescence intensity at Ex. 485 nm/535 nm in VICTOR X5 plate reader. The percent inhibition of activity of the enzyme is calculated by comparing counts in the presence and absence of compounds.
Test compounds were screened at various concentrations (10-12 tested concentrations) and dose response curves were generated was generated using GraphPad Prism software Version 7 (San Diego, Calif., USA) with non-linear regression curve fit for sigmoidal dose response (variable slope).

Sequence of USP30 (Q70CQ3 whole entry): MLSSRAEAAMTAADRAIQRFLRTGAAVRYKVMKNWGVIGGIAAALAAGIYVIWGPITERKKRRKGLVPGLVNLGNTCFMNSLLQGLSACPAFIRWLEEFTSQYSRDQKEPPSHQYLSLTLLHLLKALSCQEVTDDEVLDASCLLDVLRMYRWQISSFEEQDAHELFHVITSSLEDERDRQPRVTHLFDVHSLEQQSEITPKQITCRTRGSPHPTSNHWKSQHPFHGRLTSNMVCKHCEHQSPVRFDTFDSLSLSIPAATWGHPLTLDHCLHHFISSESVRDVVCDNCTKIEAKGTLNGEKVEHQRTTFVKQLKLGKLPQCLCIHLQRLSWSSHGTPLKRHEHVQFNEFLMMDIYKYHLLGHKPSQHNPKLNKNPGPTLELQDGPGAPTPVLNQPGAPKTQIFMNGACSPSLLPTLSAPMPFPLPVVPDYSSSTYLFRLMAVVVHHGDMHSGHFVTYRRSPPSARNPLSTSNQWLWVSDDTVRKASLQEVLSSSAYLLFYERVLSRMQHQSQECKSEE

| IC50 [nM] | SMILES |
| --- | --- |
| 248 | CC(C)(C)NS(=O)(=O)c1cccc2c(NC(=O)[C@@H](Cc3ccccc3)NC(=O)c3ccccc3)cccc12 [Compound 4a, (R)-N-(1-((5-(N-(tert-butyl)sulfamoyl)naphthalen-1-yl)amino)-1-oxo-3-phenylpropan-2-yl)benzamide] |
| 273 | CC(C)(C)NS(=O)(=O)c1cccc2c(NC(=O)[C@H](Cc3ccccc3)NC(=O)c3ccccc3)cccc12 [Compound 4b, (S)—N-(1-((5-(N-(tert-butyl)sulfamoyl)naphthalen-1-yl)amino)-1-oxo-3-phenylpropan-2-yl)benzamide] |
| > 10000 | CC(C)(C)NS(=O)(=O)c1cccc2c(NC(=O)[C@H](Cc3ccccc3)NC(=O)C3CC3)cccc12 [Compound 4d, (S)-N-(1-((5-(N-(tert-butyl)sulfamoyl)naphthalen-1-yl)amino)-1-oxo-3-phenylpropan-2-yl)cyclopropanecarboxamide] |
| > 10000 | CC(C)(C)NS(=O)(=O)c1cccc2c(NC(=O)[C@H](Cc3ccccc3)NC(=O)Cc3ccccc3)cccc12 [Compound 4e, (S)-N-(5-(N-(tert-butyl)sulfamoyl)naphthalen-1-yl)-3-phenyl-2-(2-phenylacetamido)propanamide] |
| > 10000 | CC(C)(C)NS(=O)(=O)c1cccc2c(NC(=O)[C@H](Cc3ccccc3)NC(=O)CCc3ccccc3)cccc12 [Compound 4f, (S)-N-(5-(N-(tert-butyl)sulfamoyl)naphthalen-1-yl)-3-phenyl-2-(3-phenylpropanamido)propanamide] |
| 1800 | CC(C)(C)NS(=O)(=O)c1cccc2c(NC(=O)[C@H](Cc3ccccc3)NC(=O)c3cccs3)cccc12 [Compound 4h, (S)-N-(1-((5-(N-(tert-butyl)sulfamoyl)naphthalen-1-yl)amino)-1-oxo-3-phenylpropan-2-yl)thiophene-2-carboxamide] |
| 2500 | Cc1ccc(C(=O)N[C@@H](Cc2ccccc2)C(=O)Nc2cccc3c(S(=O)(=O)NC(C)(C)C)cccc23)cc1 [Compound 4i, (S)-N-(1-((5-(N-(tert-butyl)sulfamoyl)naphthalen-1-yl)amino)-1-oxo-3-phenylpropan-2-yl)-4-methylbenzamide] |
| 49 | CC(C)(C)NS(=O)(=O)c1cccc2c(NC(=O)[C@H](Cc3ccccc3)NC(=O)c3ccc(F)cc3)cccc12 [Compound 4j, (S)-N-(1-((5-(N-(tert-butyl)sulfamoyl)naphthalen-1-yl)amino)-1-oxo-3-phenylpropan-2-yl)-4-fluorobenzamide] |
| > 10000 | CC(C)(C)NS(=O)(=O)c1cccc2c(NC(=O)[C@H](Cc3ccccc3)NC(=O)C3CCOCC3)cccc12 [Compound 4k, (S)-N-(1-((5-(N-(tert-butyl)sulfamoyl)naphthalen-1-yl)amino)-1-oxo-3-phenylpropan-2-yl)tetrahydro-2H-pyran-4-carboxamide] |
| 366 | CC(C)(C)NS(=O)(=O)c1cccc2c(NC(=O)[C@H](Cc3ccccc3)NC(=O)C3CCCC3)cccc12 [Compound 4l, (S)-N-(1-((5-(N-(tert-butyl)sulfamoyl)naphthalen-1-yl)amino)-1-oxo-3-phenylpropan-2-yl)cyclopentanecarboxamide] |
| > 10000 | Cc1cccc(C(=O)N[C@@H](Cc2ccccc2)C(=O)Nc2cccc3c(S(=O)(=O)NC(C)(C)C)cccc23)n1 [Compound 4m, (S)-N-(1-((5-(N-(tert-butyl)sulfamoyl)naphthalen-1-yl)amino)-1-oxo-3-phenylpropan-2-yl)-6-methylpicolinamide] |
| 98 | CC(C)(C)NS(=O)(=O)c1cccc2c(NC(=O)[C@H](Cc3ccccc3)NC(=O)C3CCC(F)(F)CC3)cccc12 [Compound 4n, (S)—N-(1-((5-(N-(tert-butyl)sulfamoyl)naphthalen-1-yl)amino)-1-oxo-3-phenylpropan-2-yl)-4,4-difluorocyclohexane-1-carboxamide] |
| > 10000 | CC(C)(C)NS(=O)(=O)c1cccc2c(NC(=O)[C@H](Cc3ccccc3)NC(=O)c3ncccn3)cccc12 [Compound 4o, (S)-N-(1-((5-(N-(tert-butyl)sulfamoyl)naphthalen-1-yl)amino)-1-oxo-3-phenylpropan-2-yl)pyrimidine-2-carboxamide] |
| 4300 | CC(C)(C)NS(=O)(=O)c1cccc2c(NC(=O)[C@H](Cc3ccccc3)NC(=O)C3CCCCCC3)cccc12 [Compound 4p, (S)-N-(1-((5-(N-(tert-butyl)sulfamoyl)naphthalen-1-yl)amino)-1-oxo-3-phenylpropan-2-yl)cycloheptanecarboxamide] |
| 180 | CC(C)(C)NS(=O)(=O)c1cccc2c(NC(=O)[C@H](Cc3ccccc3)NC(=O)c3nccs3)cccc12 [Compound 4q, (S)-N-(1-((5-(N-(tert-butyl)sulfamoyl)naphthalen-1-yl)amino)-1-oxo-3-phenylpropan-2-yl)thiazole-2-carboxamide] |
| 269 | CC(C)(C)NS(=O)(=O)c1cccc2c(NC(=O)[C@H](Cc3ccccc3)NC(=O)c3ccc(C#N)cc3)cccc12 [Compound 4r, (S)-N-(1-((5-(N-(tert-butyl)sulfamoyl)naphthalen-1-yl)amino)-1-oxo-3-phenylpropan-2-yl)-4-cyanobenzamide] |
| > 10000 | CC(C)(C)NS(=O)(=O)c1cccc2c(NC(=O)[C@H](Cc3ccccc3)NC(=O)C34CC5CC(CC(C5)C3)C4)cccc12 [Compound 4s] |
| > 10000 | CC1CCC(C(=O)N[C@@H](Cc2ccccc2)C(=O)Nc2cccc3c(S(=O)(=O)NC(C)(C)C)cccc23)CC1 (stereo partly drawn) [Compound 4t, (S)-N-(1-((5-(N-(tert-butyl)sulfamoyl)naphthalen-1-yl)amino)-1-oxo-3-phenylpropan-2-yl)-4-methylcyclohexane-1-carboxamide] |
| > 10000 | CC(C)(C)NS(=O)(=O)c1cccc2c(NC(=O)[C@H](Cc3ccccc3)NC(=O)C3CCCO3)cccc12 (stereo partly drawn) [Compound 4u, N-((S)-1-((5-(N-(tert-butyl)sulfamoyl)naphthalen-1-yl)amino)-1-oxo-3-phenylpropan-2-yl)tetrahydrofuran-2-carboxamide] |
| 9000 | COc1ccc(C(=O)N[C@@H](Cc2ccccc2)C(=O)Nc2cccc3c(S(=O)(=O)NC(C)(C)C)cccc23)cc1 [Compound 4v, (S)-N-(1-((5-(N-(tert-butyl)sulfamoyl)naphthalen-1-yl)amino)-1-oxo-3-phenylpropan-2-yl)-4-methoxybenzamide] |
| > 10000 | CC(C)(C)NS(=O)(=O)c1cccc2c(NC(=O)[C@H](Cc3ccccc3)NC(=O)c3ccc(O)cc3)cccc12 [Compound 4w, (S)-N-(1-((5-(N-(tert-butyl)sulfamoyl)naphthalen-1-yl)amino)-1-oxo-3-phenylpropan-2-yl)-4-hydroxybenzamide] |
| 170 | CC(C)(C)NS(=O)(=O)c1cccc2c(NC(=O)[C@H](Cc3ccccc3)NC(=O)c3ccccn3)cccc12 [Compound 4x, (S)-N-(1-((5-(N-(tert-butyl)sulfamoyl)naphthalen-1-yl)amino)-1-oxo-3-phenylpropan-2-yl)picolinamide] |
| 1900 | CC(C)(C)NS(=O)(=O)c1cccc2c(NC(=O)[C@H](Cc3ccccc3)NC(=O)c3ccc[nH]3)cccc12 [Compound 4y, (S)-N-(1-((5-(N-(tert-butyl)sulfamoyl)naphthalen-1-yl)amino)-1-oxo-3-phenylpropan-2-yl)-1H-pyrrole-2-carboxamide] |
| > 10000 | CC(C)(C)NS(=O)(=O)c1cccc2c(NC(=O)[C@H](Cc3ccccc3)NC(=O)c3ccco3)cccc12 [Compound 4z, (S)-N-(1-((5-(N-(tert-butyl)sulfamoyl)naphthalen-1-yl)amino)-1-oxo-3-phenylpropan-2-yl)furan-2-carboxamide] |
| 4300 | CC(C)C[C@H](NC(=O)c1ccccc1)C(=O)Nc1cccc2c(S(=O)(=O)NC(C)(C)C)cccc12 [Compound 7a, (S)-N-(1-((5-(N-(tert-butyl)sulfamoyl)naphthalen-1-yl)amino)-4-methyl-1-oxopentan-2-yl)benzamide] |
| 520 | CC(C)(C)NS(=O)(=O)c1cccc2c(NC(=O)[C@H](Cc3ccc(O)cc3)NC(=O)c3ccccc3)cccc12 [Compound 7b, (S)-N-(1-((5-(N-(tert-butyl)sulfamoyl)naphthalen-1-yl)amino)-3-(4-hydroxyphenyl)-1-oxopropan-2-yl)benzamide] |
| 666 | CC(C)(C)NS(=O)(=O)c1cccc2c(NC(=O)[C@H](CC3CCCCC3)NC(=O)c3ccccc3)cccc12 [Compound 7c, (S)-N-(1-((5-(N-(tert-butyl)sulfamoyl)naphthalen-1-yl)amino)-3-cyclohexyl-1-oxopropan-2-yl)benzamide] |
| > 10000 | CC(C)(C)NS(=O)(=O)c1cccc2c(NC(=O)[C@H](Cc3ccccc3Cl)NC(=O)c3ccccc3)cccc12 [Compound 7d, (S)-N-(1-((5-(N-(tert-butyl)sulfamoyl)naphthalen-1-yl)amino)-3-(2-chlorophenyl)-1-oxopropan-2-yl)benzamide] |

| SMILES | IC50 [nM] |
| --- | --- |
| CC(C)(C)NS(=O)(=O)c1cccc2c(NC(=O)[C@H](Cc3ccccc3)NC(=O)C3CCCCC3)cccc12 [Compound 4c, (S)-N-(1-((5-(N-(tert-butyl)sulfamoyl)naphthalen-1-yl)amino)-1-oxo-3-phenylpropan-2-yl)cyclohexanecarboxamide] | 125 |
